Experiments:
[1] = system: IL-6 mediated inflammation in microglial cells; assay: LPS/ATP-induced neuroinflammation in microglia: IL-6 secretion (Luminex); assay type: cell-based, human; details: for IL-6 in supernatant, Mean ± S.D. / IL-6 in supernatant, Replicate 1 / IL-6 in supernatant, Replicate 2 / IL-6 in supernatant, Replicate 3: LPS (100 ng/mL) + ATP (5 mM), six hours after LPS
Description: (§1) In addition to the studies discussed above assessing activity of combinations of drugs on MPP+-induced neurodegeneration toxicity on human dopaminergic neurons as well as on a human iPSC cell line harboring a triplication mutation in alpha-synuclein gene, and measuring neuronal growth, neurite branching and neurofilament heavy chain, we also assessed combinations of drugs in reducing lipopolysaccharide (LPS, from E. coli)-induced neuroinflammation in human microglia cells.
(§2) Lipopolysaccharides are important outer membrane components of gram-negative bacteria such as E. coli and Salmonella. They are large amphipathic glycoconjugates that typically consist of a lipid domain (hydrophobic) attached to a core oligosaccharide and a distal polysaccharide. LPS binds to Toll-like receptor 4 (TLR4) and activates microglia(98) which in turn increases secretion of pro-inflammatory cytokines such as interleukin-6 (IL-6), tumor necrosis factor-α (TNF-α), and CXCL1/GROα.
(§3) Microglia cells were obtained from an iCell® Microglia kit, 01279 (Catalogue N^o R1131) from FUJIFILM Cellular Dynamics. We followed the manufacturer's protocol for activation of the microglial cells with LPS/ATP to subsequently measure the effect of the study drugs on pro-inflammatory cytokines IL-6, TNF-α and CXCL1/GROα.
(§4) All cell culture procedures were performed in aseptic conditions, under a laminar flow hood. Microglia were thawed and cultured following the provider's instructions. The microglia were plated at 50,000 cells per well of a Corning Primaria 96 well plate (Ref N^o 353872) in 100 μL of growth medium. Cells were incubated at 37° C./5% CO2 in a humidified cell culture incubator.
(§5) Three days after cell plating, the test or reference substances (25 μL of solutions at 5×) were applied 1 hour before LPS and ATP stimulation.
(§6) One hour later, 12.5 μL of test or reference substances were added again at 2× concentrated followed by 12.5 μL of LPS at 12× concentration. Fifty microliters of ATP were introduced at 4× concentration, 5 h 30 min after incubation with LPS.
(§7) Six hours after LPS incubation, the supernatant of each well was collected and centrifugated at 1000 g for 10 minutes to remove the cells and debris.
(§8) Fifty microliters of supernatant from NT and LPS+ATP-treated wells were used to determine cytokine secretion (IL-6, TNF-α, CXCL1/GROα) by Luminex platform according to the provider's instructions. Samples were diluted prior to the assay to fit within the standard range if needed. Three wells were tested per each condition (Table 11). Cytokines levels in the supernatant were expressed in pg/mL. The data was analyzed using a One-Way ANOVA followed by Bonferroni test.

[2] = system: TNF-α mediated neuroinflammation in microglial cells; assay: LPS/ATP-induced neuroinflammation in microglia: TNF-α secretion (Luminex); assay type: cell-based, human; details: for TNF-α in supernatant, Mean ± S.D. / TNF-α in supernatant, Replicate 1 / TNF-α in supernatant, Replicate 2 / TNF-α in supernatant, Replicate 3: LPS (100 ng/mL) + ATP (5 mM), six hours after LPS
Description: as §1, §2, §3, §4, §5, §6, §7, §8

[3] = system: CXCL1/GROα mediated neuroinflammation in microglial cells; assay: LPS/ATP-induced neuroinflammation in microglia: CXCL1/GROα secretion (Luminex); assay type: cell-based, human; details: for CXCL1/GROα in supernatant, Mean ± S.D. / CXCL1/GROα in supernatant, Replicate 1 / CXCL1/GROα in supernatant, Replicate 2 / CXCL1/GROα in supernatant, Replicate 3: LPS (100 ng/mL) + ATP (5 mM), six hours after LPS
Description: as §1, §2, §3, §4, §5, §6, §7, §8

IL-1B = assay: LPS/ATP-induced neuroinflammation in microglia: IL-1B; assay type: cell-based, human; details: compared with […] distilled water in presence of LPS and ATP
[4] = system: human dopaminergic neurons (iCell DopaNeurons); assay: MPP+-induced neurotoxicity: neurite outgrowth (neurite length, branch points) on iCell DopaNeurons; assay type: cell-based; details: for Neurite length, Mean: Table 7.1, plate 1
Description: MPP+(1-methyl-4-phenylpyridinium) is a known neurotoxin which acts by interfering with oxidative phosphorylation in mitochondria by inhibiting complex I, a protein in the membrane of mitochondria in dopaminergic neurons in the substantia nigra.(94) The inhibition of mitochondrial function leads to the depletion of ATP and eventual cell death. MPP+ ultimately causes Parkinsonism in primates by killing certain dopamine-producing neurons in the substantia nigra.
iCell DOPA neurons are neural floor plate-derived midbrain dopaminergic neurons generated from human induced pluripotent stem cells (iPSCs). Dopaminergic neurons, specifically those located in the floor plate-derived midbrain are implicated in neurological disorders such as Parkinson's disease, MSA and DLBD among others. […] The iCellDopa neurons were supplied from FUJIFILM Cellular Dynamics.
(§9) Procedure. iCell DOPA neurons were thawed and cultured following the provider's instructions in Brainphys medium+provided supplements+1% N2 supplement (Stemcell Technologies)+penicillin/streptomycin+Laminin. They were plated at 20000 cells per well of a 384 well plate (pre-coated with poly-D-lysine and Laminin) in 70 μL of growth medium. Cells were incubated at 37° ° C./5% CO2 in a humidified cell culture incubator. Half of the culture medium was changed twice a week.
(§10) MPP+-induced neurotoxicity: 24 hours after neuronal plating, half of the medium was removed and the test compounds were applied with MPP+ treatment, both concentrated at 4×, were added to the wells. For each well, five aliquots were added, corresponding columns A-E in Table 3. In each row, either the compound indicated dissolved in its vehicle noted in Table 2 was added, or only a vehicle was added as indicated. Column E is an indicator of whether MPP+ was added. If not, only the medium was added.
(§11) For the evaluation of conditions 8, 10,12, 22, 24, Neurite outgrowth was followed for subsequent 48 hours using an Incucyte Zoom platform with one phase contrast image every 4 hours, using a 20× objective. After 48 hours, the medium containing test compounds and MPP+ was removed and replaced by fresh medium containing a fluorescent cytolysis marker (red fluorescence) and a live cell marker (green fluorescence). For the evaluation of conditions 10, 12, 24, 38, 40, 51-53, Neurite outgrowth was followed similarly for subsequent 72 hours after MPP+ was added.
Assay endpoints and data analysis. Phase contrast images were analyzed at each time point to determine the neurite length and number of branch points per mm^2. Kinetic data was plotted and kinetics were normalized by subtracting the value of the first data point (at time of treatment), allowing to measure changes in neurite outgrowth only from the onset of the treatment, starting at zero. Area Under Curve (AUC) of kinetic data was obtained and used for plotting compound's effects and perform statistical analyzes.

[5] = system: human dopaminergic neurons (iCell DopaNeurons); assay: MPP+-induced neurotoxicity: cytolysis of iCell DopaNeurons; assay type: cell-based; details: with MPP+ 100 μM
Method: Three different measurements were made in the experiments. Neurite length in mm was measured, which is a measure of increase in dendril length of neurons. […] Secondly, neurite branching was measured. […] Thirdly, cytolysis of the cells was measured. […] Experimental conditions were measured relative to the results of healthy cells in the studies.
as §9, §10, §11
Data was normalized to control conditions as there is basal cytolysis in the cell culture after thawing.

[6] = system: iPSC-derived dopaminergic (DA) neurons harboring triplication of the α-synuclein locus; assay: α-Synuclein triplication cell line: neurofilament heavy chain signal intensity; assay type: cell-based, human; details: normalized to Hoechst signal; three months treatment; PBA 500 μM, TUDCA 50 μM, EXD 100 nM
Method: We used 12 replicas for each experimental condition and 16 replicas for control (untreated cells). […] Cells were washed three times with warm phosphate buffered saline (PBS) and imaged immediately at 20× magnification on an imageXpress Micro confocal at 37° C. and 5% CO2.
Following imaging, cells were immediately fixed with 4% paraformaldehyde for 30 minutes at room temperature, washed three times with PBS, permeabilized with 0.2% Triton X-100 for 30 minutes, blocked with Odyssey Blocking Buffer for 60 minutes, and incubated overnight at 4° C. with primary antibodies, neurofilament (1:1000, Synaptic Systems 171 002) and LB509 (1:100, Abcam ab27766). Cells were washed 3× with 0.1% Tween-20 in PBS and incubated with Alexa Fluor Goat Anti-Rabbit 790 (1:1000) and Goat Anti-Mouse 647 (1:1000) for 1 hour at RT, before washing 3× with 0.1% Tween-20 in PBS and imaging with Sapphire Biomolecular Imager. Neurofilament heavy chain signal intensity was normalized to fixed Hoechst signal measured with Spectra Gemini plate reader (ex=350 nm, em=461 nm), using Hoechst 33342 nucleic acid stain from Invitrogen according to the manufacturer's instructions. Neurofilaments (NF) are located mostly in axons and indicate roughly the content of neurites. If neurodegeneration is halted or reversed, NF signal increases because it correlates with the number and/or length of neurites in the well.

HD patients = details: up to 15 g/day; cited from earlier work
G93A transgenic ALS mice = details: mouse, in vivo; cited from earlier work
Alzheimer's disease = details: cited from earlier work
[7] = compared with […] distilled water in presence of LPS and ATP
[8] = Table 7.2, plate 1, with MPP+ 100 μM, 72 hours

Compound: CC(C)(O)c1coc(S(=O)(=O)NC(=O)Nc2c3c(cc4c2CCC4)CCC3)c1 [MCC950]
- IL-6 in supernatant, Mean ± S.D. [1]: 256.48 ± 40.04 pg/mL
- IL-6 in supernatant, Replicate 1 [1]: 253.54 pg/mL
- IL-6 in supernatant, Replicate 2 [1]: 297.91 pg/mL
- IL-6 in supernatant, Replicate 3 [1]: 218.00 pg/mL
- Effect on IL-6 concentration (in words) [1, 7]: significantly decreased
- TNF-α in supernatant, Mean ± S.D. [2]: 30.95 ± 2.25 pg/mL
- TNF-α in supernatant, Replicate 1 [2]: 29.44 pg/mL
- TNF-α in supernatant, Replicate 2 [2]: 29.87 pg/mL
- TNF-α in supernatant, Replicate 3 [2]: 33.53 pg/mL
- Effect on TNF-α concentration (in words) [2, 7]: significantly decreased
- CXCL1/GROα in supernatant, Mean ± S.D. [3]: 469.39 ± 82.91 pg/mL
- CXCL1/GROα in supernatant, Replicate 1 [3]: 375.70 pg/mL
- CXCL1/GROα in supernatant, Replicate 2 [3]: 499.15 pg/mL
- CXCL1/GROα in supernatant, Replicate 3 [3]: 533.31 pg/mL
- Effect on IL-1B concentration (in words) (IL-1B): significantly decreased

Compound: O=C([O-])CCCc1ccccc1.[Na+] [PBA, Sodium 4-phenylbutyrate]
- Increase of number of branch points compared with MPP+ alone (control/MPP+) ([4]; AUC, MPP+ 100 μM): 89%
- Protective effect on neurite length and branching (in words) ([4]; MPP+ 100 μM): much less protective effect than combination 8
- Neurite length - Baseline-corrected AUC (0-72 h), Mean ([4]; Table 5.1, plate 1, with MPP+ 100 μM): 853.7 mm/mm^2
- Number of branch points per mm^2 - Baseline-corrected AUC (0-72 h), Mean ([4]; Table 5.2, plate 1, with MPP+ 100 μM): 41712.8 per mm^2
- Neurite length, Mean ([4]; with MPP+ 100 μM, 72 hours): 1681.1 mm/mm^2
- Neurite Branching, Mean ± S.D. [4, 8]: 46742.8 ± 7107.5 per mm^2
- Cytolysis, Mean ± S.D. ([5]; Table 9.1, plate 1): 72.06 ± 1.77%
- Neurofilament Heavy Chain signal intensity, mean [6]: 1.088
- IL-6 in supernatant, Mean ± S.D. [1]: 355.23 ± 45.97 pg/mL
- IL-6 in supernatant, Replicate 1 [1]: 396.23 pg/mL
- IL-6 in supernatant, Replicate 2 [1]: 363.94 pg/mL
- IL-6 in supernatant, Replicate 3 [1]: 305.53 pg/mL
- Decrease of IL-6 concentration [1, 7]: 49%
- TNF-α in supernatant, Mean ± S.D. [2]: 33.46 ± 1.75 pg/mL
- TNF-α in supernatant, Replicate 1 [2]: 32.67 pg/mL
- TNF-α in supernatant, Replicate 2 [2]: 35.47 pg/mL
- TNF-α in supernatant, Replicate 3 [2]: 32.24 pg/mL
- Decrease of TNF-α concentration [2, 7]: 44%
- CXCL1/GROα in supernatant, Mean ± S.D. [3]: 495.79 ± 122.99 pg/mL
- CXCL1/GROα in supernatant, Replicate 1 [3]: 627.29 pg/mL
- CXCL1/GROα in supernatant, Replicate 2 [3]: 383.60 pg/mL
- CXCL1/GROα in supernatant, Replicate 3 [3]: 476.49 pg/mL
- Safety and tolerability (HD patients): safe and well-tolerated
- Survival (G93A transgenic ALS mice): significantly extended survival

Compound: CC(C)[C@H](NC(=O)c1ccc2ccccc2n1)C(=O)N[C@@H](CC(=O)O)C(=O)COc1c(F)cccc1F [PCI/MPP+, Q-VD-OPh]
- Neurite length, Mean ([4]; with MPP+ 100 μM, 72 hours): 1301.0 mm/mm^2
- Neurite Branching, Mean ± S.D. [4, 8]: 38456.3 ± 11570.7 per mm^2
- Neurite length, Mean ± S.D. ([4]; Table 8.1, plate 2, with MPP+ 100 μM, 72 hours): 1430.1 ± 321.7 mm/mm^2
- Neurite Branching, Mean ± S.D. ([4]; Table 8.2, plate 2, with MPP+ 100 μM, 72 hours): 52610.1 ± 16660.1 per mm^2
- Cytolysis, Mean ± S.D. ([5]; Table 9.1, plate 1): 65.56 ± 1.89%
- Cytolysis, Mean ± S.D. ([5]; Table 9.2, plate 2): 67.93 ± 3.52%

Compound: CCOC(=O)C1=CCCC[C@H]1S(=O)(=O)Nc1ccc(F)cc1Cl [TAK-242]
- IL-6 in supernatant, Mean ± S.D. [1]: 10.47 ± 0.00 pg/mL
- IL-6 in supernatant, Replicate 1 [1]: <10.47 pg/mL
- IL-6 in supernatant, Replicate 2 [1]: <10.47 pg/mL
- IL-6 in supernatant, Replicate 3 [1]: <10.47 pg/mL
- Effect on IL-6 concentration (in words) [1, 7]: significantly decreased
- TNF-α in supernatant, Mean ± S.D. [2]: 5.63 ± 0.00 pg/mL
- TNF-α in supernatant, Replicate 1 [2]: <5.63 pg/mL
- TNF-α in supernatant, Replicate 2 [2]: <5.63 pg/mL
- TNF-α in supernatant, Replicate 3 [2]: <5.63 pg/mL
- Effect on TNF-α concentration (in words) [2, 7]: significantly decreased
- CXCL1/GROα in supernatant, Mean ± S.D. [3]: 37.76 ± 6.05 pg/mL
- CXCL1/GROα in supernatant, Replicate 1 [3]: 35.76 pg/mL
- CXCL1/GROα in supernatant, Replicate 2 [3]: 32.96 pg/mL
- CXCL1/GROα in supernatant, Replicate 3 [3]: 44.55 pg/mL
- Effect on GROα concentration (in words) [3, 7]: significantly decreased
- Effect on IL-1B concentration (in words) (IL-1B): significantly decreased

Compound: Cc1cn(-c2cc(NC(=O)c3ccc(C)c(Nc4nccc(-c5cccnc5)n4)c3)cc(C(F)(F)F)c2)cn1 [nilotinib, Nilotinib]
- Hippocampal volume loss attenuated (Alzheimer's disease; at 12 months): −27%
- Safety (Alzheimer's disease; in vivo): safe
